Measured values reported in ChEMBL document CHEMBL1201862, “PubChem BioAssay data set” (2004).
“And” between values parts separate entries of the source, which are not always exact repeats. Equal entries are not always repeated.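 Growth conditions: 96-well plates. Treatment: test compound, 48 hours, 5 concentrations. Analysis: linear interpolation between bracketing concentrations; unreached endpoints set to highest concentration. GI50 is the concentration that inhibits growth by half.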 The source made the active and inactive calls. Cut-off read from the data, not from the text of the source: active = GI50 up to about 1.1 µM and inactive = higher.

Key:
Assay in all cases: growth of human tumour cells (NCI), 48 h
DMS-114 = tested on: DMS-114
SNB-78 = tested on: SNB-78
M19-MEL = tested on: M19-MEL
KM-20L2 = tested on: KM-20L2
XF498 = tested on: XF498
LXFL 529 = tested on: LXFL 529
DLD-1 = tested on: DLD-1
RXF 631 = tested on: RXF 631
DMS-273 = tested on: DMS-273

Row | Compound | GI50 (DMS-114) | GI50 (SNB-78) | GI50 (M19-MEL) | GI50 (KM-20L2) | GI50 (XF498) | GI50 (LXFL 529) | GI50 (DLD-1) | GI50 (RXF 631) | GI50 (DMS-273)
1 | C/C(=N\OCC(O)CNC(C)C)c1ccc2c(c1)NC(=O)CS2 (configuration not stated) | > 100 µM (inactive) | > 100 µM (inactive) | > 100 µM (inactive) | > 100 µM (inactive) | > 100 µM (inactive) | > 100 µM (inactive) | > 100 µM (inactive) |  | 
2 | CC(C)(O)[C@@H]1CC[C@@]2(C)CCC[C@H](O)[C@H]2C1 | > 100 µM (inactive) |  | > 100 µM (inactive) | > 100 µM (inactive) | > 100 µM (inactive) | > 100 µM (inactive) | > 100 µM (inactive) | > 100 µM (inactive) | > 100 µM (inactive)
3 | Cc1ccc(NC(=O)CCc2nnc3s/c(=C\C=C\c4ccccc4)c(=O)n23)cc1 | > 100 µM (inactive) | > 71 µM (inactive) | 67.5 µM (inactive) | > 100 µM (inactive) | > 100 µM (inactive) | 60.7 µM (inactive) | > 100 µM (inactive) | > 82.4 µM (inactive) | > 100 µM (inactive)
4 | CC1CN(c2ccc(Cl)cc2)CC(C)(C)OC(=O)O1 (configuration not stated) | > 100 µM (inactive) | > 100 µM (inactive) | > 100 µM (inactive) | > 100 µM (inactive) | > 100 µM (inactive) | > 100 µM (inactive) | > 100 µM (inactive) | > 100 µM (inactive) | > 100 µM (inactive)
5 | COC(=O)C1CC/C(=N\c2cccc(C(F)(F)F)c2)N1 (configuration not stated) | > 100 µM (inactive) | > 100 µM (inactive) |  |  | > 100 µM (inactive) | > 100 µM (inactive) | > 100 µM (inactive) | > 100 µM (inactive) | > 100 µM (inactive)
6 | CC(=O)OCC1OC(N2C(=O)C(=O)c3cc(C)ccc32)C(OC(C)=O)C(OC(C)=O)C1OC(C)=O (configuration not stated) | > 100 µM (inactive) | > 100 µM (inactive) | 50.7 µM (inactive) | 60.5 µM (inactive) |  | > 100 µM (inactive) | 56 µM (inactive) |  | > 100 µM (inactive)
7 | O=C(O)CCSC(=O)Nc1cccc(F)c1 | 66.5 µM (inactive) | > 100 µM (inactive) |  | > 100 µM (inactive) |  | > 100 µM (inactive) | > 10 µM (inactive) |  | > 100 µM (inactive)
8 | COc1cc(CC(C)N)ccc1O (configuration not stated) | > 100 µM (inactive) | > 100 µM (inactive) |  | > 100 µM (inactive) | > 100 µM (inactive) | > 100 µM (inactive) | > 100 µM (inactive) | > 100 µM (inactive) | > 100 µM (inactive)
9 | O=S(=O)(O)c1cc(O)c2c(O)c(/N=N/c3ccc(/C=C/c4ccc(/N=N/c5c(S(=O)(=O)O)cc6cc(S(=O)(=O)O)cc(O)c6c5O)cc4S(=O)(=O)O)c(S(=O)(=O)O)c3)c(S(=O)(=O)O)cc2c1 | 56.6 µM (inactive) |  | > 100 µM (inactive) | > 100 µM (inactive) | > 100 µM (inactive) | > 100 µM (inactive) | > 100 µM (inactive) |  | > 100 µM (inactive)
10 | COc1cc(C2c3cc4c(cc3[C@@H](Nc3ccc(F)cc3)C3COC(=O)[C@H]23)OCO4)cc(OC)c1O (some centres not stated) | 2.64 µM (inactive) | 8.65 µM (inactive) | 4.21 µM (inactive) | 2.08 µM (inactive) | 2.95 µM (inactive) | 6.67 µM (inactive) | 3.79 µM (inactive) |  | 0.891 µM (active)
11 | O=C1C2C3CCC(C2C(=O)N1CO)C1C2C(=O)N(CO)C(=O)C2C31 (configuration not stated) | 25.6 µM (inactive) | > 100 µM (inactive) | 1 µM (active) | > 52.6 µM (inactive) | > 100 µM (inactive) | 55.3 µM (inactive) | 45.4 µM (inactive) |  | 36.1 µM (inactive)
12 | CC1=C2C(=O)O[C@@H](c3ccoc3)[C@]2(C)CCC1 [FRAXINELLONE] | > 100 µM (inactive) | > 100 µM (inactive) | > 100 µM (inactive) | > 100 µM (inactive) | > 100 µM (inactive) | > 100 µM (inactive) | > 100 µM (inactive) |  | 
13 | O=C1c2ccccc2-c2c3c(cc4ccnc1c24)OCO3 [LIRIODENINE] |  |  | 5.86 µM (inactive) and 3.75 µM (inactive) | 7.14 µM (inactive) and 5.82 µM (inactive) | 5.75 µM (inactive) and 4.69 µM (inactive) | 5.89 µM (inactive) and 6.52 µM (inactive) | 4.49 µM (inactive) and 4.05 µM (inactive) |  | 3.44 µM (inactive) and 5.46 µM (inactive)
